Test results as given in patent EP0277910A1, “1-Methyl-15-alpha-(1,2-dialkanoyloxyalkyl)androsta-1,4-diene-3-17-diones, process for their preparation and pharmaceutical compositions containing them” (SCHERING AKTIENGESELLSCHAFT, priority 1987, dated 1988).

Target: T1, Aromatase (Rattus norvegicus, UniProt P22443)
T1 construct: Infantile weibliche Ratten reagieren auf PMSG (Pregnant Mare's Serum Gonadotropin)-Behandlung mit einheitlich erhöhter Steroidsynthese; from tissue; host or cells: living infantile female rats pretreated with PMSG
T1 sequence (P22443 1-508): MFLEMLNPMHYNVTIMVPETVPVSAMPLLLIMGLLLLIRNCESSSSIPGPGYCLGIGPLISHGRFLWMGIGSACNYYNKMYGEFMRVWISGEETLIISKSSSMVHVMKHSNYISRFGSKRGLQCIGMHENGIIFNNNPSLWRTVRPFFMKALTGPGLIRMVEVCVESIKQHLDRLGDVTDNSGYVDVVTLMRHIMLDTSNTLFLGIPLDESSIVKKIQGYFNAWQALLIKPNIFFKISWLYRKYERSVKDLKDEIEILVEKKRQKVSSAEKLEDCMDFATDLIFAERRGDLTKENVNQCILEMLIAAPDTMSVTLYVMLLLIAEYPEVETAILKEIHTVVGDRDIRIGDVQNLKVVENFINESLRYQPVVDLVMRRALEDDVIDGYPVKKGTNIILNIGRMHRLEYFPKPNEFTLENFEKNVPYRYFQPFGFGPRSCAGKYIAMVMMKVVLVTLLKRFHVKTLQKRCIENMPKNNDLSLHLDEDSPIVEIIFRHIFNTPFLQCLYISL
Experiment: PMSG test: effect on serum oestradiol concentration in PMSG-pretreated infantile female rats
Type: in vivo, Ratte
Conditions: for Östradiol-Konzentration: peripheral serum, PMSG-pretreated rat, 24 h after last PMSG, mean ± SD; for Serum-östradiolkonzentration: in comparison with A and B
Protocol: Infantile weibliche Ratten reagieren auf PMSG (Pregnant Mare's Serum Gonadotropin)-Behandlung mit einheitlich erhöhter Steroidsynthese. Die Aromataseaktivität kann durch die Beeinflussung der PMSG-stimulierten Östrogenbildung gemessen werden.
Im sogenannten PMSG-Test werden 21 tage alte weibliche Ratten alle 2 Tage insgesamt 7 mal mit je 100 I.U. PMSG subkutan vorbehandelt. 1 Stunde vor und 8 Stunden nach der letzten PMSG-Applikation(d₁₂) erhalten die Tiere die Testsubstanz in 0,1 ml Benzylbenzoat/Rizinusöl (1+9) durch subkutane Injektion. Die Kontrolltiere erhalten nur das Vehikel. 24 Stunden nach der letzten PMSG-Applikation werden die Tiere getötet. Im serum wird Östradiol radioimmunologisch geprüft. Für jede Gruppe von Tieren wird der Mittelwert der Östradiolkonzentration in nMol/l mit der Standardabweichung errechnet. Die Signifikanzen der Unterschiede zur Kontrollgruppe werden durch die Varianzanalyse geprüft. Zur Ermittlung der relativen Wirkungsstärke der zu testenden Substanz im Vergleich zu der Standardsubstanz wird die Regressions- und Kovarianzanalyse durchgeführt. Ferner wird die prozentuale Hemmung gegen die PMSG-Kontrolle berechnet.

SMILES | Östradiol-Konzentration (Dosis 0,1 mg/Tier 2 x s.c.) | Östradiol-Konzentration (Dosis 0,3 mg/Tier 2 x s.c.) | Östradiol-Konzentration (Dosis 1,0 mg/Tier 2 x s.c.) | Serum-östradiolkonzentration
C[C@]12CCC(=O)C(O)=C1CC[C@@H]1[C@@H]2CC[C@]2(C)C(=O)CC[C@@H]12 [A, 4-Hydroxy-4-androsten-3,17-dion, reference compound] | 3,98±1,12 nMol/l | 3,84±0,84 nMol/l | 1,94±0,62 nMol/l | 
CC(=O)O[C@H]([C@H]1CC(=O)[C@@]2(C)CC[C@H]3[C@@H](CCC4=CC(=O)C=C(C)[C@@]43C)[C@H]12)[C@H](C)OC(C)=O [C, 15α-(1R,2S-Diacetoxypropyl)-1-methyl-androsta-1,4-dien-3,17-dion] | 1,30±0,37 nMol/l | 0,68±0,32 nMol/l | 0,24±0,10 nMol/l | stärker gesenkt
CC[C@H](OC(C)=O)[C@H](OC(C)=O)[C@H]1CC(=O)[C@@]2(C)CC[C@H]3[C@@H](CCC4=CC(=O)C=C(C)[C@@]43C)[C@H]12 [D, 15α-(1R,2S-Diacetoxybutyl)-1-methyl-androsta-1,4-dien-3,17-dion] | 0,54±0,11 nMol/l | 0,88±0,15 nMol/l | 0,41±0,09 nMol/l | stärker gesenkt
CC(=O)OCC[C@H]1CC(=O)[C@@]2(C)CC[C@H]3[C@@H](CCC4=CC(=O)C=C(C)[C@@]43C)[C@H]12 [B, 15α-(Acetoxyethyl)-1-methyl-androsta-1,4-dien-3,17-dion, reference compound] | 2,11±0,39 nMol/l | 0,62±0,13 nMol/l | 0,54±0,07 nMol/l | 
